The nature of data set [1]: X-ray powder diffraction of freshly prepared solid dispersions (physical form of drug in matrix). Format: physicochemical. On the procedure: (§1) An X-ray powder diffraction (XPD) pattern was obtained with a Scintag® XDS 2000 θ/θ diffraction system equipped with a 2 kW normal focus X-ray tube and a liquid nitrogen cooled germanium solid state detector.
The samples were prepared by dissolving ABT-538 in a small volume of 200 proof ethanol in a 250 ml round bottom flask. The flask was vortexed and then placed in a water bath maintained at 75° C. The PEG 8000 was added to the hot alcohol solution with continual swirling until the PEG melted. The flask was then attached to a rotary evaporator, immersed in the water bath (75° C.) under vacuum for 15 minutes to remove the ethanol. After the majority of ethanol had evaporated, the flask was immersed in an ice bath for 15 minutes. The contents of the flask were then vacuum dried at room temperature overnight to remove residual alcohol. The dispersion was removed from the flask, gently ground, and sized to 40-100 mesh size. The drug loads used for these dispersions were 10, 20 and 30% w/w.
The solid dispersion of 30% ABT-538 in 95:5 PEG8000:PVP was prepared by dissolving the ABT-538 and PVP 17 PF in a small volume of 200 proof ethanol in a 250 ml round bottom flask. The remainder of the process was as described above. A 30% ABT-538 dispersion in 85:15 PEG8000:PVP was also prepared similarly as were dispersions of 10 or 20% PVP 17 PF in PEG 8000 without drug.
(§2) Both fenofibrate and PEG 8000 were sized to 40-100 mesh prior to mixing with a spatula on weighing paper. The mixture was then added to a 25 ml beaker and heated to 85° C. in a water bath until the all the material had melted. The molten solution was then poured onto a chilled X-ray sample holder to rapidly solidify the solution. The solid sample was immediately used to monitor the crystallization rate via X-ray powder diffraction.
Fenofibrate (40-100 mesh) was added to the 90:10 PEG 8000:PVP control dispersion (see above) which was also sized to 40-100 mesh and mixed with spatula on a piece of weighing paper. The mixture was then processed as described above for the 15% fenofibrate dispersion in PEG 8000.
Both griseofulvin and PEG 8000 were sized to 40-100 mesh prior to mixing on a weighing paper with a spatula. The sample was then added to an 4 ml stainless steel vessel which was sealed under a N2 atmosphere. The vessel was then immersed into an oil bath maintained at 180° C. […]
A similar plot is shown in FIG. 2 with PVP incorporated into the matrix. […] Crystallization kinetics were determined by heating the samples to 85° C., holding them isothermally for predetermined times followed by heating through the melting transition temperature of ABT-538. The heats of fusion were determined and ratioed against the heat of fusion of the drug melting in the physical mixture, giving the fraction crystallized. […]

Data set [2] is described as follows: DSC crystallization kinetics, isothermal hold at 85° C. Format: physicochemical. Particulars: PVP in matrix versus PEG. Here is the method:
DSC measurements were made using a Mettler DSC 30 unit. Samples (4-7 mg) were sealed in standard 40 μl aluminum crucibles with a single hole punched in the lids. An empty crucible of the same type was used as a reference.
A similar plot is shown in FIG. 2 with PVP incorporated into the matrix. […] A similar plot is seen in FIG. 4 for the PEG:PVP dispersion. The endotherm associated with drug melting can clearly be discerned from the other components. Thus, it is possible to follow the kinetics of ABT-538 crystallization via DSC measurements. Crystallization kinetics were determined by heating the samples to 85° C., holding them isothermally for predetermined times followed by heating through the melting transition temperature of ABT-538. The heats of fusion were determined and ratioed against the heat of fusion of the drug melting in the physical mixture, giving the fraction crystallized.

Data set [3] is described as follows: Isothermal calorimetry (TAM) of recrystallization at 40° C. In kind it is physicochemical. Here is the method:
The recrystallization reactions of 30% ABT-538 in PEG or PEG:PVP (95:5) solid dispersions were monitored via isothermal calorimetry (Thermometric 2277 Calorimeter) at 40° C. Since crystallization is an exothermic process, a positive power output indicates crystallization. The magnitude of the power output at any time is proportional to the rate of crystallization. XPD was used to confirm crystallization.
The crystallization rate was also followed via the heat associated with crystallization of ABT-538 using a isothermal calorimetry. The shapes and magnitudes of the crystallization peaks in FIG. 6 indicate that ABT-538 crystallizes more readily in the PEG matrix as compared to the PEG:PVP matrix. This stabilizing effect of PVP is also reflected in the times required for complete crystallization (time to reach baseline) which were <10 hours for PEG and >30 hours for PEG:PVP (95:5).
On the technique in general: In ITC the heat of successive injections is recorded.

Data set [4] can be described thus: XPD monitoring for crystalline drug in samples held at 50° C. Format: physicochemical. On the procedure: An X-ray powder diffraction (XPD) pattern was obtained with a Scintag® XDS 2000 θ/θ diffraction system equipped with a 2 kW normal focus X-ray tube and a liquid nitrogen cooled germanium solid state detector. An additional study was performed with a dispersion containing 15% PVP. The samples were held at 50° C. (above the Tg of ABT-538) and X-ray diffraction patterns were measured over time to monitor for the appearance of crystalline ABT-538.

The conditions of data set [5]: Aungst et al., Int. J. Pharm. 156, 79 (1997); cited from earlier work.
Data set [6] in a line: XPD rate of crystallization upon storage at 25° C. Format: physicochemical. Here is the method: as §1, §2
The figure illustrates that the fenofibrate is X-ray-amorphous within the matrix. Again, the fenofibrate is amorphous. Upon storage at 25° C., the fenofibrate begins to crystallize in the PEG 8000 matrix within 1 hour (FIG. 10). Additional crystallization follows up to 12 hours, when the experiment was terminated.
Similar XPD patterns for the griseofulvin dispersion in PEG 8000 and 80:20 PEG 8000:PVP matrices are shown in FIGS. 12 and 13, respectively. In both instances, amorphous griseofulvin is isolated within the respective matrices. […] However, in the presence of PVP (FIG. 15), crystallization is not observed even after 15 hours under the same conditions.

[7] abbreviates: PEG 8000:PVP matrix, 30% ABT-538, 15% fenofibrate (90:10) or 15% griseofulvin (80:20).
Where [8] appears, read: PEG 8000 matrix, 30% ABT-538, 15% fenofibrate or 15% griseofulvin.

Entries after “also recorded” stand apart in the source; their conditions may differ.

This is an account of results in patent publication US9107830B2, “Inhibitors of crystallization in a solid dispersion” (ABBVIE, INC., priority 1999, dated 2015).

With `CC(C)c1nc(CN(C)C(=O)NC(C(=O)NC(Cc2ccccc2)CC(O)C(Cc2ccccc2)NC(=O)OCc2cncs2)C(C)C)cs1` [ABT-538, (2S,3S,5S)-5-(N—(N—((N-methyl-N-((2-isopropyl-4-thiazolyl)-methyl)amino)carbonyl)-L-valinyl)amino-2-(N-((5-thiazolyl)methoxy-carbonyl)-amino)-1,6-diphenyl-3-hydroxyhexane], the “physical form of drug in the solid dispersion by XPD” value in data set [1] (setting [7]) and in data set [1] (setting [8]) was “Amorphous; also recorded: not crystalline” in each case. Moreover, the “effect of PVP within the matrix on crystallization rate (percent crystallized from heat of fusion)” value in data set [2] is listed as “suppresses the crystallization rate”; in data set [2] (listed as ritonavir) it was “slower”. Further, the “time required for complete crystallization (time to reach baseline)” value was below 10 h in data set [3] (30% ABT-538 in PEG solid dispersion) and above 30 h in data set [3] (30% ABT-538 in PEG:PVP (95:5) solid dispersion). Moreover, the “time at which crystalline drug is detected (XPD)” value in data set [4] (PEG8000 alone, detected at this time and before) is at most 233 h. Moreover, the “time held without crystalline ABT-538 present (XPD)” value in data set [4] (dispersion containing 15% PVP) was above 272 h.
Turning to `O=C1N(Cc2ccc(CO)cc2)[C@H](Cc2ccccc2)[C@H](O)[C@@H](O)[C@@H](Cc2ccccc2)N1Cc1ccc(CO)cc1` [DMP 323], the “effect of PEG solid dispersion formulation on bioavailability” value in data set [5] is listed as “unable to improve the bioavailability”.
As to `COC1=CC(=O)C[C@@H](C)[C@]12Oc1c(Cl)c(OC)cc(OC)c1C2=O` [griseofulvin], the “physical form of drug in the solid dispersion by XPD” value in data set [1] (setting [7]) and in data set [1] (setting [8]) was “amorphous” throughout. Also, in data set [6] (15% drug in PEG 8000 matrix, storage at 25° C.), the “time at which drug begins to crystallize (XPD)” value is on record as “one”. Besides, the “time without crystallization observed (XPD)” value in data set [6] (15% griseofulvin in 80:20 PEG 8000:PVP, 25° C.) was above 15 h.
